Organism: Rattus norvegicus
Test: Open TG-GATES - Regimen: Single
Assay type: toxicity, organism-based, Sprague-Dawley
Set-up: regimen Single, gender Male, age 6 weeks
Conditions: in vivo, po, 1200 mg/kg, route gavage, dose level Middle; for APTT / Bas / Eos / Fbg / Hb / Ht / Lym / MCH / MCHC / MCV / Mono / Neu / PT / Plat / RBC / Ret / WBC: tissue Blood; for KIDNEY_L / KIDNEY_R / KIDNEY_TOTAL: tissue Kidney; for LIVER: tissue Liver; for A/G / ALP / ALT / AST / BUN / CRE / Ca / Cl / DBIL / GLC / IP / K / LDH / Na / PL / RALB / TBIL / TC / TG / TP / gamma-GTP: tissue Plasma

Compound `CCO` [ALCOHOL] has a TERMINAL_BW (3 h) of 203.8 g, an APTT (3 h) of 18.7 s and a Bas (3 h) of 0%. It also gave an Eos (3 h) of 1%, a Fbg (3 h) of 200 mg/dL and a Hb (3 h) of 13.2 g/dL. For the same compound, the Ht (3 h) was 39.1%, the Lym (3 h) was 72% and the MCH (3 h) was 22.1 pg. For the same compound, the MCHC (3 h) was 33.7%, the MCV (3 h) was 65.5 fL and the Mono (3 h) was 5.6%. The Neu (3 h) was 21.6%, the PT (3 h) was 12.4 s and the Plat (3 h) was 108.6 x10_4/uL. The RBC (3 h) was 596.8 x10_4/ul, the Ret (3 h) was 8.1% and the WBC (3 h) was 95.6 x10_2/uL. The KIDNEY_L (3 h) was 0.9 g, the KIDNEY_R (3 h) was 1 g and the KIDNEY_TOTAL (3 h) was 1.9 g. It also gave an LIVER (3 h) of 9.2 g, an A/G (3 h) of 2.8 and an ALP (3 h) of 973.6 IU/L. The ALT (3 h) was 38 IU/L, the AST (3 h) was 69.8 IU/L and the BUN (3 h) was 9 mg/dL. For the same compound, the CRE (3 h) was 0.5 mg/dL, the Ca (3 h) was 10.7 mg/dL and the Cl (3 h) was 104.6 meq/L. The DBIL (3 h) was 0.016 mg/dL, the GLC (3 h) was 204.4 mg/dL and the IP (3 h) was 8.9 mg/dL. It also gave a K (3 h) of 4.5 meq/L, an LDH (3 h) of 121.2 IU/L and a Na (3 h) of 140 meq/L. The PL (3 h) was 138 mg/dL, the RALB (3 h) was 3.8 g/dL and the TBIL (3 h) was 0.4 mg/dL. It also gave a TC (3 h) of 74.8 mg/dL, a TG (3 h) of 60.8 mg/dL and a TP (3 h) of 5.2 g/dL. For the same compound, the gamma-GTP (3 h) was 1.2 IU/L, the TERMINAL_BW (6 h) was 203.8 g and the APTT (6 h) was 17.5 s. The Bas (6 h) was 0%, the Eos (6 h) was 1.2% and the Fbg (6 h) was 196.6 mg/dL. It also gave a Hb (6 h) of 13.3 g/dL, a Ht (6 h) of 39.9% and a Lym (6 h) of 67%. It also gave an MCH (6 h) of 21.7 pg, an MCHC (6 h) of 33.3% and an MCV (6 h) of 65 fL. For the same compound, the Mono (6 h) was 12%, the Neu (6 h) was 19.4% and the PT (6 h) was 12.2 s. It also gave a Plat (6 h) of 98.4 x10_4/uL, an RBC (6 h) of 615.4 x10_4/ul and a Ret (6 h) of 13.5%. It also gave a WBC (6 h) of 87.4 x10_2/uL, a KIDNEY_L (6 h) of 0.9 g and a KIDNEY_R (6 h) of 1 g. It also gave a KIDNEY_TOTAL (6 h) of 1.9 g, an LIVER (6 h) of 9.2 g and an A/G (6 h) of 2.4. For the same compound, the ALP (6 h) was 827.2 IU/L, the ALT (6 h) was 36 IU/L and the AST (6 h) was 71 IU/L. It also gave a BUN (6 h) of 11.4 mg/dL, a CRE (6 h) of 0.5 mg/dL and a Ca (6 h) of 10.5 mg/dL. For the same compound, the Cl (6 h) was 105.2 meq/L, the DBIL (6 h) was 0.066 mg/dL and the GLC (6 h) was 203 mg/dL. For the same compound, the IP (6 h) was 10.3 mg/dL, the K (6 h) was 4.6 meq/L and the LDH (6 h) was 87 IU/L. The Na (6 h) was 140.8 meq/L, the PL (6 h) was 132.4 mg/dL and the RALB (6 h) was 3.8 g/dL. The TBIL (6 h) was 0.4 mg/dL, the TC (6 h) was 69.2 mg/dL and the TG (6 h) was 59.4 mg/dL. For the same compound, the TP (6 h) was 5.3 g/dL, the gamma-GTP (6 h) was 1.8 IU/L and the TERMINAL_BW (9 h) was 201.5 g. It also gave an APTT (9 h) of 17.2 s, a Bas (9 h) of 0% and an Eos (9 h) of 1.6%. For the same compound, the Fbg (9 h) was 204.2 mg/dL, the Hb (9 h) was 13.5 g/dL and the Ht (9 h) was 40.2%. For the same compound, the Lym (9 h) was 73%, the MCH (9 h) was 21.2 pg and the MCHC (9 h) was 33.5%. It also gave an MCV (9 h) of 63.3 fL, a Mono (9 h) of 7.4% and a Neu (9 h) of 18.2%. For the same compound, the PT (9 h) was 12.1 s, the Plat (9 h) was 114.7 x10_4/uL and the RBC (9 h) was 635.8 x10_4/ul. The Ret (9 h) was 9.9%, the WBC (9 h) was 73.2 x10_2/uL and the KIDNEY_L (9 h) was 0.9 g. For the same compound, the KIDNEY_R (9 h) was 0.9 g, the KIDNEY_TOTAL (9 h) was 1.9 g and the LIVER (9 h) was 8.4 g. For the same compound, the A/G (9 h) was 2.8, the ALP (9 h) was 845 IU/L and the ALT (9 h) was 28.8 IU/L. It also gave an AST (9 h) of 61.6 IU/L, a BUN (9 h) of 11 mg/dL and a CRE (9 h) of 0.5 mg/dL. It also gave a Ca (9 h) of 10.9 mg/dL, a Cl (9 h) of 105.8 meq/L and a DBIL (9 h) of 0.042 mg/dL. It also gave a GLC (9 h) of 192 mg/dL, an IP (9 h) of 10.7 mg/dL and a K (9 h) of 4.7 meq/L. The LDH (9 h) was 102 IU/L, the Na (9 h) was 136.4 meq/L and the PL (9 h) was 132.2 mg/dL. It also gave an RALB (9 h) of 4.1 g/dL, a TBIL (9 h) of 0.4 mg/dL and a TC (9 h) of 71.6 mg/dL. The TG (9 h) was 35 mg/dL, the TP (9 h) was 5.6 g/dL and the gamma-GTP (9 h) was 1.4 IU/L. The TERMINAL_BW (24 h) was 217.4 g, the APTT (24 h) was 17.6 s and the Bas (24 h) was 0%. For the same compound, the Eos (24 h) was 1.2%, the Fbg (24 h) was 207.2 mg/dL and the Hb (24 h) was 13.2 g/dL. The Ht (24 h) was 39.2%, the Lym (24 h) was 73.4% and the MCH (24 h) was 21.8 pg. The MCHC (24 h) was 33.6%, the MCV (24 h) was 64.9 fL and the Mono (24 h) was 9.2%. It also gave a Neu (24 h) of 16.4%, a PT (24 h) of 11.4 s and a Plat (24 h) of 113.3 x10_4/uL. It also gave an RBC (24 h) of 604.6 x10_4/ul, a Ret (24 h) of 10.6% and a WBC (24 h) of 106.7 x10_2/uL. It also gave a KIDNEY_L (24 h) of 1 g, a KIDNEY_R (24 h) of 1 g and a KIDNEY_TOTAL (24 h) of 1.9 g. It also gave an LIVER (24 h) of 10.5 g, an A/G (24 h) of 2.6 and an ALP (24 h) of 909 IU/L. The ALT (24 h) was 37.8 IU/L, the AST (24 h) was 64.8 IU/L and the BUN (24 h) was 21.2 mg/dL. For the same compound, the CRE (24 h) was 0.5 mg/dL, the Ca (24 h) was 11 mg/dL and the Cl (24 h) was 103.6 meq/L. It also gave a DBIL (24 h) of 0 mg/dL, a GLC (24 h) of 188 mg/dL and an IP (24 h) of 8.8 mg/dL. It also gave a K (24 h) of 4.9 meq/L, an LDH (24 h) of 109.8 IU/L and a Na (24 h) of 138.8 meq/L. The PL (24 h) was 159.4 mg/dL, the RALB (24 h) was 4 g/dL and the TBIL (24 h) was 0.3 mg/dL. For the same compound, the TC (24 h) was 83.6 mg/dL, the TG (24 h) was 101.8 mg/dL and the TP (24 h) was 5.6 g/dL. The gamma-GTP (24 h) was 1 IU/L.
